What all share (assay): relative viability (nuclei count vs DMSO), 5 days (fraction); higher = more cells survive
Compound in the assay “Zosuquidar + Tozasertib”: O[C@@H](COc1cccc2ncccc12)CN1CCN([C@@H]2c3ccccc3[C@@H]3[C@H](c4ccccc42)C3(F)F)CC1 [Zosuquidar] + Cc1cc(Nc2cc(N3CCN(C)CC3)nc(Sc3ccc(NC(=O)C4CC4)cc3)n2)n[nH]1 [Tozasertib] (partner 0.1 µM)
The gist of the method:
(§1)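 Lung cancer cell lines, seeded in 1536-well plates, were treated the following day by pin tool with a single drug or with five library-drug doses (not always all listed) in √10 steps on top of a fixed anchor-drug dose. Cells were fixed and nuclei stained in one step after 5 days, and nuclei were counted. Relative viability is the nuclei count for treated wells divided by that for vehicle wells, reported as medians of duplicate plates.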

Compound in assay [1]: COc1cc2nccc(Oc3ccc(NC(=O)C4(C(=O)Nc5ccc(F)cc5)CC4)cc3)c2cc1OC [Cabozantinib] + C[C@]1(O)C[C@@H](c2nc(-c3ccc4ccc(-c5ccccc5)nc4c3)c3c(N)nccn32)C1 [Linsitinib] (partner 1 µM)
Put shortly:
as §1

Compound in the assay “Zosuquidar + Alpelisib”: O[C@@H](COc1cccc2ncccc12)CN1CCN([C@@H]2c3ccccc3[C@@H]3[C@H](c4ccccc42)C3(F)F)CC1 [Zosuquidar] + Cc1nc(NC(=O)N2CCC[C@H]2C(N)=O)sc1-c1ccnc(C(C)(C)C(F)(F)F)c1 [Alpelisib] (partner 2 µM)
Put shortly:
as §1

Compound in the assay “Cabozantinib + Foretinib”: COc1cc2nccc(Oc3ccc(NC(=O)C4(C(=O)Nc5ccc(F)cc5)CC4)cc3)c2cc1OC [Cabozantinib] + COc1cc2c(Oc3ccc(NC(=O)C4(C(=O)Nc5ccc(F)cc5)CC4)cc3F)ccnc2cc1OCCCN1CCOCC1 [Foretinib] (partner 0.25 µM)
The gist of the method:
as §1

Consider UMC-11, for which the relative viability with Zosuquidar + Tozasertib (first compound 0.01 µM) was 0.207; in the assay with Zosuquidar + Tozasertib (first compound 0.03162 µM), 0.194; in the assay with Zosuquidar + Tozasertib (first compound 0.1 µM), 0.201; with Zosuquidar + Tozasertib (first compound 0.3162 µM) it was 0.208; in the assay with Zosuquidar + Tozasertib (first compound 1 µM), 0.194; in assay [1] (first compound 0.02 µM), 1.12. The relative viability is 1.04 in assay [1] (first compound 0.06325 µM); 1.03 in assay [1] (first compound 0.2 µM); 0.98 in assay [1] (first compound 0.6325 µM); 1.05 in assay [1] (first compound 2 µM); 0.877 in the assay with Zosuquidar + Alpelisib (first compound 0.01 µM); 1.03 with Zosuquidar + Alpelisib (first compound 0.03162 µM). In addition, the relative viability with Zosuquidar + Alpelisib (first compound 0.1 µM) came to 0.973; with Zosuquidar + Alpelisib (first compound 0.3162 µM), 1.02; with Zosuquidar + Alpelisib (first compound 1 µM), 0.961; with Cabozantinib + Foretinib (first compound 0.02 µM), 0.959; with Cabozantinib + Foretinib (first compound 0.06325 µM), 1.21; with Cabozantinib + Foretinib (first compound 0.2 µM), 1.01. Moreover, the values for the relative viability with Cabozantinib + Foretinib (first compound 0.6325 µM) and with Cabozantinib + Foretinib (first compound 2 µM) were 1.03 and 0.942, respectively.

The record behind these values is the supplement of paper PMC10307832.
